Experimental data reported in patent publication EP0234480A2, “1, 3-diketone derivatives and their use” (NIHON NOHYAKU CO., LTD., priority 1986, dated 1987).

Legend:
[1] = tested on: hepatic disorder caused by carbon tetrachloride; assay: Effect of suppressing hepatic disorder caused by carbon tetrachloride; type: in vivo, mice; conditions: mean of 5; for Liver disorder index: mice (dd-strain), 250 mg/kg oral in olive oil, 6 h before carbon tetrachloride 0.05 ml/kg oral, visual observation 24 h after, scale 0 healthy, 2 slightly affected, 4 evident disorder, 6 serious disorder; for p-GPT (K.U.): plasma glutamic pyruvic transaminase activity, Reitman-Frankel, mice, 250 mg/kg oral, 6 h before carbon tetrachloride 0.05 ml/kg, 24 h after, values of 2,100 units or higher counted as 2,100
Experimental: Six hours thereafter, carbon tetrachloride was orally administered in a proportion of 0.05 ml/kg. The animals were sacrificed 24 hours after the administration of carbon tetrachloride, and the extent of liver disorder was examined by visual observation. On the other hand, blood was collected from the animal at the time of the sacrifice, and centrifuged to obtain plasma. The plasma glutamic piruvic transaminase (GPT) activity was determined according to the method of Reitman-Frankel. The activity was expressed in terms of Karmen Units (K.U.). The conditions of the liver were expressed in terms of liver disorder index as follows. […] Mice were used in groups of five and the results of test were represented by the mean value. When the GPT activity was 2,100 units or higher, […], and the activity was calculated as 2,100 units for reasons of convenience.

[2] = Acute oral toxicity (LD50); conditions: in vivo, male rat
Experimental: For example, LD50 value (acute oral toxicity to male rat) of the compound No. 8 is more than 1,000 mg/kg.

Structure (SMILES) | Liver disorder index [1] | p-GPT (K.U.) [1] [K.U.] | LD50 [2] [mg/kg]
O=C(C(C(=O)c1ccc(F)cc1)=C1SCS1)c1ccccc1 [compound 31, 1-(1,3-dithietan-2-ylidene)-1-(4-fluorobenzoyl)acetophenone] | 0.4 | 16 | 
COc1cccc(C(=O)C(C(C)=O)=C2SC(c3ccccc3)S2)c1 (stereo not shown) [compound 24] | 3.8 | 1654 | 
CC(=O)C(C(=O)c1cccs1)=C1SCS1 [compound 19, 1-(1,3-dithietan-2-ylidene)-1-(2-thiophene-carbonyl)acetone] | 0.2 | 16 | 
CC(=O)C(C(=O)c1cccnc1)=C1SCS1 [compound 21] | 0.2 | 14 | 
CC(=O)C(C(=O)c1ccc(Cl)cc1Cl)=C1SCS1 [Compound No. 15] | 0.5 | 203 | 
COc1ccc(C(=O)C(C(C)=O)=C2SCS2)cc1OC [compound 9] | 0.6 | 11 | 
CC(=O)C(C(=O)c1ccco1)=C1SCS1 [compound 20] | 0 | 22 | 
CC(C)C(=O)C(C(=O)c1ccccc1Cl)=C1SCS1 [compound 28] | 1.0 | 42 | 
CC(=O)C(C(=O)c1ccccc1)=C1SCS1 [Compound No. 1] | 0.7 | 23 | 
CC(=O)C(C(=O)c1ccc(OCc2ccc(Cl)cc2)cc1)=C1SCS1 [compound 12] | 2.8 | 1739 | 
CC(=O)C(C(=O)c1ccccc1Cl)=C1SCS1 [compound 13] | 0.8 | 13 | 
CC(=O)C(C(=O)c1ccc(OC(C)C)cc1)=C1SCS1 [compound 29] | 3.4 | 233 | 
CC(=O)C(C(=O)c1ccc(OCc2ccccc2)cc1)=C1SCS1 [compound 11] | 1.6 | 884 | 
CC(=O)C(C(=O)c1ccc2ccccc2c1)=C1SCS1 [compound 32] | 0.8 | 18 | 
COc1ccc(C(=O)C(C(C)=O)=C2SCS2)c(OC)c1 [Compound No. 8] | 0.6 | 54 | > 1000
CC(=O)C(C(=O)c1ccc(C)cc1)=C1SCS1 [compound 3] | 1.4 | 14 | 
COc1ccc(C(=O)C(C(C)=O)=C2SCS2)cc1 [compound 7] | 1.2 | 19 | 
COc1cccc(C(=O)C(C(C)=O)=C2SCS2)c1 [compound 6] | 2.0 | 16 | 
CC(=O)C(C(=O)c1cccc(C)c1)=C1SCS1 [Compound No. 2] | 0.8 | 22 | 
CC(=O)C(C(C)=O)=C1SCS1 [compound 18, 1-acetyl-1-(1,3-dithietan-2-ylidene) acetone] | 1.6 | 1142 | 
CC(=O)C(C(=O)c1ccc(C)c(C)c1)=C1SCS1 [compound 4, 1-(3,4-dimethylbenzoyl)-1-(1,3-dithietan-2-ylidene)acetone] | 0.6 | 23 | 
O=C(C(C(=O)c1ccccc1)=C1SCS1)c1ccccc1 [compound 22] | 0.5 | 71 | 
CC(=O)C(C(C)=O)=C1SC(C)S1 (stereo not shown) [compound 25] | 1.2 | 205 | 
CC(=O)C(C(=O)c1ccccc1)=C1SC(c2ccccc2)S1 (stereo not shown) [compound 23] | 6.6 | 1668 | 
COc1cc(C(=O)C(C(C)=O)=C2SCS2)cc(OC)c1OC [compound 10] | 1.8 | 413 | 
Cc1cccc(C(=O)C(C(=O)c2ccccc2)=C2SCS2)c1 [compound 30] | 0.6 | 19 | 
CC(=O)C(C(=O)c1ccc(F)cc1)=C1SCS1 [compound 17] | 0.4 | 15 | 
CC(=O)C(C(=O)c1ccc(Cl)cc1)=C1SCS1 [compound 14] | 0.2 | 73 | 
COc1ccccc1C(=O)C(C(C)=O)=C1SCS1 [Compound No. 5, 1-(1,3-dithietan-2-ylidene)-1-(2-methoxybenzoyl)acetone] | 1.0 | 12 | 
CC(=O)C(C(=O)c1ccc(Br)cc1)=C1SCS1 [compound 16, 1-(4-bromobenzoyl)-1-(1,3-dithietan-2-ylidene)acetone] | 0 | 15.8 | 
